Read-outs that look alike come from different tables or passages of the source.
What was measured:
[1] = target: T1, EGFR L858R/T790M/C797S (BaF3-LTC cells) (Homo sapiens, UniProt P00533, C797S/L858R/T790M); experiment: EGFR degradation HTRF assay, BaF3-LTC cells; assay type: cell-based
T1 construct: expressed in transfected cells; host or cells: BaF3
Summary of the method: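 EGFR remaining after a 16 h, 37 °C exposure (8 doses, 5-fold steps from 10 uM final, 0.2% DMSO) was quantified by HTRF antibodies in cell lysate. Percent inhibition relative to DMSO control was fitted by four-parameter logistic to give DC50; Dmax denotes maximal degradation.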

[2] = test system: EGFR Del19/T790M/C797S (H1975-clone #28); experiment: EGFR degradation HTRF assay, H1975-clone #28 DTC cells; assay type: cell-based
Summary of the method: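 Lentiviral Del19/T790M/C797S (clone #28) or Del19/C797S (clone #23) EGFR expressed in H1975 with endogenous EGFR knocked out. Cells treated 16 h, 37 °C, 8 doses, 5-fold from 10 uM top, 0.2% DMSO; EGFR read by HTRF after lysis. Degradation % vs DMSO control; DC50, Dmax from four-parameter fit.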

[3] = BaF3-LTC cells; EGFR degradation, IC50 (DC50) from curve fit; read-out: DC50(nM) BaF3-LTC
[4] = BaF3-LTC cells; maximum percentage of inhibition (degradation); read-out: Dmax (%) BaF3-LTC
[5] = H1975 # 28 DTC cells; EGFR degradation, IC50 (DC50) from curve fit; read-out: DC50(nM) H1975 # 28 DTC
[6] = H1975 # 28 DTC cells; maximum percentage of inhibition (degradation)

T1 sequence (P00533 25-1210 T790M/C797S/L858R): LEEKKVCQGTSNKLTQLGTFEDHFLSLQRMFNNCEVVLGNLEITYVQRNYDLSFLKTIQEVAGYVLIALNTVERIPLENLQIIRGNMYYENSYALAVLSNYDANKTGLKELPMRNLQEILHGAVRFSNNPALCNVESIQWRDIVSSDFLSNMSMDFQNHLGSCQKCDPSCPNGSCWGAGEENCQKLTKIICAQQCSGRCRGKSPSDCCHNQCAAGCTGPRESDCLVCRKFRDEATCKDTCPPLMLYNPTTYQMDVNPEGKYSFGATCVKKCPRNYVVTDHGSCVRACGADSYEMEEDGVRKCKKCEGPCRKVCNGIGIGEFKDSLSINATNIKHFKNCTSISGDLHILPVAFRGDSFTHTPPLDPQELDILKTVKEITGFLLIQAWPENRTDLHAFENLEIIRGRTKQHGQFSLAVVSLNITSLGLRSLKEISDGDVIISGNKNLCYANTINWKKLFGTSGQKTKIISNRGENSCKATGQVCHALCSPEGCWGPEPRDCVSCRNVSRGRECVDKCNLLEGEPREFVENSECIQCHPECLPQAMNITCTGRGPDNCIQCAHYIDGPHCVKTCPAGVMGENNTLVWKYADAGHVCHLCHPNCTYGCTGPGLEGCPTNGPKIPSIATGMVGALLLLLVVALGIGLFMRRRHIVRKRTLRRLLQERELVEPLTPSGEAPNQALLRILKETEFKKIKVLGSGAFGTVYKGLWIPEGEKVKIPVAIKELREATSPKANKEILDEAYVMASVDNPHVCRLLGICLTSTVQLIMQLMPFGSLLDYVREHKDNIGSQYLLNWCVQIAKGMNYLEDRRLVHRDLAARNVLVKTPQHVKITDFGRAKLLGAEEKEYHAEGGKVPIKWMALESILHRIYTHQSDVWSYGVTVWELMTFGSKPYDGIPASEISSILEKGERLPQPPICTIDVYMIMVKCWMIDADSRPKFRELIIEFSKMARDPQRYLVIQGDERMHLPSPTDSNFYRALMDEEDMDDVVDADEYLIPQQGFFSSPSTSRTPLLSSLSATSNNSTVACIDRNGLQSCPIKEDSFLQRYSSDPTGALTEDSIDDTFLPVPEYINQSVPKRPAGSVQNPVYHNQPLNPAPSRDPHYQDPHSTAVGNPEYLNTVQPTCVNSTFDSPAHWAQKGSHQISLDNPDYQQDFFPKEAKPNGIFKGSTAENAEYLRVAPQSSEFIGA

SMILES | DC50 [1, 3] | Dmax [1, 4] | DC50 [2, 5] | Dmax (%) H1975 # 28 DTC [2, 6] | Dmax (%) BaF3-LTC ([1]; BaF3-LTC cells; maximum percentage of inhibition (degradation)) | DC50 ([1]; read-out: DC50(nM) BaF3-LTC; BaF3-LTC cells; EGFR degradation, IC50 (DC50) from curve fit) | DC50 ([2]; read-out: DC50(nM) H1975 # 28 DTC; H1975 # 28 DTC cells; EGFR degradation, IC50 (DC50) from curve fit)
CCOc1cc(N2CCC(N3CCN(CCc4cc(F)c([C@H]5CCC(=O)NC5=O)c(F)c4)CC3)CC2)c(CC)cc1Nc1ncc(Cl)c(Nc2cc(F)c3nc(CC)ccc3c2P(C)(C)=O)n1 [Example 730, (R)-3-(4-(2-(4-(1-(4-((5-chloro-4-((5-(dimethylphosphoryl)-2-ethyl-8-fluoroquinolin-6-yl)amino)pyrimidin-2-yl)amino)-5-ethoxy-2-ethylphenyl)piperidin-4-yl)piperazin-1-yl)ethyl)-2,6-difluorophenyl)piperidine-2,6-dione] | 81.1 nM |  | 8.9 nM | 81.41% |  |  | 
CCOc1cc(N2CCC(N3CCN(CCc4cc5oc(=O)n(C6CCC(=O)NC6=O)c5cc4C(F)(F)F)CC3)CC2)c(CC)cc1Nc1ncc(Br)c(Nc2ccc3nc(CC)ccc3c2P(C)(C)=O)n1 (centres unmarked) [Example 616, 3-(6-(2-(4-(1-(4-((5-bromo-4-((5-(dimethylphosphoryl)-2-ethylquinolin-6-yl)amino)pyrimidin-2-yl)amino)-5-ethoxy-2-ethylphenyl)piperidin-4-yl)piperazin-1-yl)ethyl)-2-oxo-5-(trifluoromethyl)benzo[d]oxazol-3(2H)-yl)piperidine-2,6-dione] | 43.1 nM | 83.8% | 5.75 nM | 70.93% |  |  | 
CCOc1cc(N2CCC(N3CCN(CCc4cc5oc(=O)n(C6CCC(=O)NC6=O)c5cc4F)CC3)CC2)c(CC)cc1Nc1ncc(Br)c(Nc2ccc3nc(CC)ncc3c2P(C)(C)=O)n1 (centres unmarked) [Example 609, 3-(6-(2-(4-(1-(4-((5-bromo-4-((5-(dimethylphosphoryl)-2-ethylquinazolin-6-yl)amino)pyrimidin-2-yl)amino)-5-ethoxy-2-ethylphenyl)piperidin-4-yl)piperazin-1-yl)ethyl)-5-fluoro-2-oxobenzo[d]oxazol-3(2H)-yl)piperidine-2,6-dione] |  |  |  | 74.7% | 89.57% | 11.5 nM | 3.07 nM

The remaining compounds from weak to strong by DC50 [1, 3], led by results:

DC50 [1, 3] | Dmax [1, 4] | DC50 [2, 5] | SMILES | Dmax (%) H1975 # 28 DTC [2, 6] | Dmax (%) BaF3-LTC ([1]; BaF3-LTC cells; maximum percentage of inhibition (degradation)) | DC50 ([1]; read-out: DC50(nM) BaF3-LTC; BaF3-LTC cells; EGFR degradation, IC50 (DC50) from curve fit) | DC50 ([2]; read-out: DC50(nM) H1975 # 28 DTC; H1975 # 28 DTC cells; EGFR degradation, IC50 (DC50) from curve fit)
25 nM | 73.9% | 1.91 nM | CCOc1cc(N2CCC(N3CCN(CCc4cc(Cl)cc5c4oc(=O)n5C4CCC(=O)NC4=O)CC3)CC2)c(CC)cc1Nc1ncc(Br)c(Nc2ccc3c(=O)n(CC)ncc3c2P(C)(C)=O)n1 (centres unmarked) [Example 599, 3-(7-(2-(4-(1-(4-((5-bromo-4-((5-(dimethylphosphoryl)-2-ethyl-1-oxo-1,2-dihydrophthalazin-6-yl)amino)pyrimidin-2-yl)amino)-5-ethoxy-2-ethylphenyl)piperidin-4-yl)piperazin-1-yl)ethyl)-5-chloro-2-oxobenzo[d]oxazol-3(2H)-yl)piperidine-2,6-dione] | 80.53% |  |  | 
17.8 nM | 73.3% | 2.8 nM | CCOc1cc(N2CCC(N3CCN(CCc4cc(F)c5c(c4)C4(CC4)C(=O)N5C4CCC(=O)NC4=O)CC3)CC2)c(CC)cc1Nc1ncc(Br)c(Nc2ccc3nc(CC)ccc3c2P(C)(C)=O)n1 (centres unmarked) [Example 659, 3-(5′-(2-(4-(1-(4-((5-bromo-4-((5-(dimethylphosphoryl)-2-ethylquinolin-6-yl)amino)pyrimidin-2-yl)amino)-5-ethoxy-2-ethylphenyl)piperidin-4-yl)piperazin-1-yl)ethyl)-7′-fluoro-2′-oxospiro[cyclopropane-1,3′-indolin]-1′-yl)piperidine-2,6-dione] | 77.5% |  |  | 
10.3 nM | 89.5% | 1.68 nM | CCOc1cc(N2CCC(N3CCN(C[C@H]4CCN(c5cccc6c5oc(=O)n6C5CCC(=O)NC5=O)C4)CC3)CC2)c(CC)cc1Nc1ncc(Br)c(Nc2ccc3nc(CC)ccc3c2P(C)(C)=O)n1 (stereo partly drawn) [Example 561, 3-(7-((R)-3-((4-(1-(4-((5-bromo-4-((5-(dimethylphosphoryl)-2-ethylquinolin-6-yl)amino)pyrimidin-2-yl)amino)-5-ethoxy-2-ethylphenyl)piperidin-4-yl)piperazin-1-yl)methyl)pyrrolidin-1-yl)-2-oxobenzo[d]oxazol-3(2H)-yl)piperidine-2,6-dione] | 77.5% |  |  | 

Reference: patent US20230265116A1, “DEGRADATION OF (EGFR) BY CONJUGATION OF EGFR INHIBITORS WITH E3 LIGASE LIGAND AND METHODS OF USE” (BEIGENE, LTD., priority 2020, published 2023)
